According to US4578395A, “Certain aralkylaminoalkyl esters of 1,4 dihydropyridines as antihypertensive” (Teijin Limited, priority 1983, dated 1986):
Where a name gives a salt, the structure may show the parent alone. Each block holds one compound with its values, some of them ahead of it.

Assays:
mean blood pressure = test: Action on mean blood pressure in anesthetized dog; type: in vivo, male beagle dog; details: 10 μg/kg i.v.
Experimental: (§1) A male beagle dog weighing about 10 kg was anesthetized with sodium pentobarbital (35 mg/kg i.v.). The test compound was dissolved in a small quantity of ethanol, diluted with an isotonic sodium chloride solution, and was injected into the right femoral vein.
The mean blood pressure (MBP) was measured with the pressure transwer via the cannula inserted into the right femoral artery of the male beagle dog. The changes in the blood pressure after the administration of the test compound are shown in percentages in Table 5.

[1] = system: cerebral blood vessels (common carotid artery); test: Action on cerebral blood vessels (carotic blood flow) in anesthetized dog; type: in vivo, male beagle dog; details: 3 μg/kg i.v.
Experimental: as §1
(§2) The carotic blood flow (CBF) and the femoral blood flow (FBF) were measured with the electromagnetic blood flowmeter (MFV-1200 made by Japan Photoelectric Co., Ltd.) via probe for measuring the blood flow volume set in the right common carotid artery and the left femoral artery of the male beagle dog respectively.

platelet aggregation = test: In vitro inhibitory activity of platelet aggregation; type: cell-based, male Hartley guinea pigs; details: AA 75 μM; for inhibition at 100 µM: Cavia porcellus, Platelet, Conc. 100 μM
Experimental: The in vitro platelet aggregation inhibiting activities of the compounds of the invention were examined by using guinea pigs. Blood was withdrawn by cardiac puncture from male Hartley guinea pigs weighing […]. A mixture of a 3.8% trisodium citrate solution and the blood in a ratio of 1:9 was centrifuged at a speed of 800 rpm for 10 minutes. The upper layer was separated as platelet-rich plasma (PRP). The lower layer was further centrifuged at a separated as platelet-poor plasma (PPP). The number of platelets was adjusted to 5×10^5 /μl to 6×10^5 /μl by filuting the PRP with PPP. 25 microliters of the test compounds prepared as shown below was added in an amount of 25 microliters of PRP after the adjustment, and the mixture was pre-incubated at 37° C. for 2 minutes, and then 75 μM (final) of AA was added. By using an aggregometer (37° C., 1,100 rpm), changes in transmission were recorded.
The test compound was dissolved in ethanol to a concentration of 10 mg/ml. When its activity was measured, it was used after being diluted with phosphate buffer (pH 7.4). Furthermore, after dilution with the buffer, the test compound was left to stand at 0° C. for 4 hours, and the activity of the test compound was similarly measured.
The rate of inhibition of platelet aggregation was determined from the following equation. [formula]

myocardium = test: Action on myocardium (Max dLVP/dt) in anesthetized dog; type: in vivo, male beagle dog; details: 10 μg/kg i.v.
Experimental: as §1
The left ventricular pressure (LVP) was measured with the pressure transducer via the cannula which was inserted from the left common carotid artery into the left ventricle and the recorded pressure was differentiated to calculate the max (dLVP/db), thus measuring the pharmacological action of the test compound on the myocardium. […] The Basic and Clinical Study, vol. 14, 4477 (1980) is a useful literature to be consulted with for making this kind of experiment. It is apparent from Table 6 that the compound of this invention has less exciting action on the myocardium than nicardipine.

Ca^++ contraction = test: Activity of calcium ion blocking action (thoracic aorta strips); design: species or system male wister rat
Experimental: Spillay cut strips of thoracic arota were obtained from male wister rat and mounted in K-depalarized solution. 30-40 min. after treatment of compound (140) hydrochloride various concentration of Ca^++ were applied and concentration-response curve of calcium ion (Ca^++) was obtained.

[2] = system: SHR (Spontaneously Hypertensive Rats); test: Antihypertensive activity in SHR; type: in vivo, Male SHR (Spontaneously Hypertensive Rats); details: no anesthesia
Experimental: Male SHR (14 to 16 weeks old) fasted for more than 16 hours were used. […] When one hour or more passed after the rats woke up out of the ether, they were administered the test compound orally. The blood pressure was measured with the pressure transducer via the catheter inserted into the femoral artery.
The test compound was dissolved in a small quantity of ethanol and diluted with water to be adjusted for administration.
Changes in the mean blood pressure were obtained from the equation mentioned below. The Basic and Clinical Study, vol. 14, p. 4495 (1980) is a useful literature to be referred to for making this kind of experiment. [formula]

conscious rats = test: Antihypertensive activity by oral administration in conscious rats; type: in vivo, Male Wistar rats; details: 10 mg/kg oral
Experimental: When one hour or more passed after the rats were aroused, they were administered the test compound orally.
The blood pressure in the femoral artery was recorder and changes in the mean blood pressure were obtained from the following equation. [formula]

[3] = prior art; cited from earlier work
anesthetized rats = test: Hypotensive activity by intravenous administration in anesthetized rats (Example 23); type: in vivo, Male Wistar rats
Experimental: Male Wistar rats weighing about 250 g were used. They were anesthetized with urethane (500 mg/kg) and α-chloralose (100 mg/kg) intraperitoneal injection.
The test compound was dissolved in a small quantity of ethanol and the solution, which was then diluted with physiological saline to have a final concentration of ethanol kept at 5% or lower, was intravenously injected through a catheter inserted into the femoral vein.
The blood pressure was recorded with the pressure transducer via the catheter inserted into the common carotid artery of the rats.
Hypotensive activity of the test compound was indicated by the dose (ED20 μ/kg) required for decreasing the mean blood pressure by 20% as compared with the mean blood pressure before the administration.
To determine the duration of the hypotensive action of the test compound, half-life of hypotensive action T^1 /2) was measured.

[4] = Light stability in methanol solution; type: physicochemical; details: light, read-out: Remaining percentage
Experimental: 1 mg of compound (156) hydrochloride was dissolved in 100 ml of methanol. The solution was placed in a transparent glass test tube, and after the test tube was tightly stoppered, it was allowed to stand by the window of the laboratory. Part of the solution was taken at regular intervals and subjected to high performance liquid chromatograph to determined the remaining quantity of compound (156) hydrochloride contained in the solution. The same experiment was conducted with nicardipine hydrochloride as the control.

[5] = system: peripheral blood vessels (femoral artery); test: Action on peripheral blood vessels (femoral blood flow) in anesthetized dog; type: in vivo, male beagle dog; details: 3 μg/kg i.v.
Experimental: as §1, §2

IC50 (Ca^++ contraction; 30-40 min after treatment, K-depolarized solution, read-out: 50% inhibited concentration to Ca^++ contraction): 100 pM
SMILES: COC(=O)C1=C(C)NC(C)=C(C(=O)OCC(C)(C)CN(C)Cc2ccccc2)C1c1cc([N+](=O)[O-])ccc1F (stereo not shown) [(140) hydrochloride, 3-(N-Benzyl-N-methylamino)-2,2-dimethylpropyl methyl 2,6-dimethyl-4-(2-fluoro-5-nitrophenyl)-1,4-dihydropyridine-3,5-dicarboxylate]
Changes in MBP (mean blood pressure; 0.5 min.): -6 ± 1%
Changes in MBP (mean blood pressure; 1 min.): -10 ± 1%
Changes in MBP (mean blood pressure; 2 min.): -15 ± 1%
Changes in MBP (mean blood pressure; 5 min.): -20 ± 2%
Changes in MBP (mean blood pressure; 10 min.): -23 ± 2%
Changes in MBP (mean blood pressure; 15 min.): -28 ± 3%
Changes in CBF ([1]; 0.5 min.): +7%
Changes in CBF ([1]; 1 min.): +14%
Changes in CBF ([1]; 2 min.): +17%
Changes in CBF ([1]; 5 min.): +22%
Changes in CBF ([1]; 10 min.): +22%
inhibition at 100 µM (platelet aggregation): -1.1 ± 1.4%
Changes in Max dLVP/dt (myocardium; 0.5 min.): 0 ± 2%
Changes in Max dLVP/dt (myocardium; 1 min.): +2 ± 2%
Changes in Max dLVP/dt (myocardium; 2 min.): +2 ± 3%
Changes in Max dLVP/dt (myocardium; 5 min.): -6 ± 3%
Changes in Max dLVP/dt (myocardium; 10 min.): +6 ± 4%
Changes in Max dLVP/dt (myocardium; 15 min.): +4 ± 4%
Changes in MBP ([2]; 3 mg/kg oral, 30 min.): -68 ± 2 mmHg
Changes in MBP ([2]; 3 mg/kg oral, 60 min.): -69 ± 4 mmHg
Changes in MBP ([2]; 3 mg/kg oral, 90 min.): -65 ± 2 mmHg
Changes in MBP ([2]; 3 mg/kg oral, 2 hr.): -65 ± 2 mmHg
Changes in MBP ([2]; 3 mg/kg oral, 3 hr.): -65 ± 2 mmHg
Changes in MBP ([2]; 3 mg/kg oral, 5 hr.): -55 mmHg
Changes in MBP ([2]; 3 mg/kg oral, 7 hr.): -39 ± 5 mmHg
Changes in mean blood pressure (conscious rats; after 30 min): -36.7 mmHg
Changes in mean blood pressure (conscious rats; after 60 min): -35.4 mmHg
Changes in mean blood pressure (conscious rats; after 90 min): -36.3 mmHg
Changes in mean blood pressure (conscious rats; after 2 hr): -36.2 mmHg
Changes in mean blood pressure (conscious rats; after 3 hr): -33.8 mmHg
Changes in mean blood pressure (conscious rats; after 5 hr): -32.6 mmHg
Changes in mean blood pressure (conscious rats; after 7 hr): -31.7 mmHg

SMILES: CCOC(=O)C1=C(C)NC(C)=C(C(=O)OC)C1c1cccc(Cl)c1Cl (stereo not shown) [Felodipine, 4-(2,3-dichlorophenyl)-2,6-dimethyl-1,4-dihydropyridine-3,5-dicarboxylic acid-3-methyl ester-5-ethyl ester, reference compound]
solubility in water [3]: very purely soluble in water
Changes in mean blood pressure (conscious rats; after 30 min): -34 mmHg
Changes in mean blood pressure (conscious rats; after 60 min): -27 mmHg
Changes in mean blood pressure (conscious rats; after 90 min): -24 mmHg
Changes in mean blood pressure (conscious rats; after 2 hr): -22 mmHg
Changes in mean blood pressure (conscious rats; after 3 hr): -17 mmHg
Changes in mean blood pressure (conscious rats; after 5 hr): -10 mmHg
Changes in mean blood pressure (conscious rats; after 7 hr): -5 mmHg

remaining at 2 h ([4]; 2 hr.): 98%
remaining at 4 h ([4]; 4 hr.): 87%
remaining at 6 h ([4]; 6 hr.): 78%
SMILES: COC(=O)C1=C(C)NC(C)=C(C(=O)OCCN(C)Cc2ccccc2)C1c1cccc([N+](=O)[O-])c1 (stereo not drawn) [Nicardipine hydrochloride, 4-(3-nitrophenyl)-2,6-dimethyl-1,4-dihydropyridine-3,5-dicarboxylic acid-3-methyl ester-5-β-(N-benzyl-N-methylamino) ethyl hydrochloride, reference compound]
time to peak of antihypertensive action after the administration (mean blood pressure): one
Changes in MBP (mean blood pressure; 0.5 min.): -17 ± 2%
Changes in MBP (mean blood pressure; 1 min.): -18 ± 3%
Changes in MBP (mean blood pressure; 2 min.): -16 ± 3%
Changes in MBP (mean blood pressure; 5 min.): -11 ± 4%
Changes in MBP (mean blood pressure; 10 min.): -7 ± 4%
Changes in MBP (mean blood pressure; 15 min.): -8 ± 5%
ED20 (anesthetized rats; Rattus norvegicus, iv, anesthetized Wistar rats about 250 g, read-out: ED20 (dose decreasing mean blood pressure by 20%)): 0.021 mg/kg
Duration T1/2 (half-life of hypotensive action) (anesthetized rats; i.v., dose 30): 4.2 min
time to peak of CBF after the administration [1]: one
Changes in CBF ([1]; 0.5 min.): +7%
Changes in CBF ([1]; 1 min.): +14%
Changes in CBF ([1]; 2 min.): +13%
Changes in CBF ([1]; 5 min.): +5%
Changes in CBF ([1]; 10 min.): +3%
inhibitory activity of platelet aggregation (platelet aggregation; 100 μM): has inhibitory activity of platelet aggregation
inhibition at 100 µM (platelet aggregation): 35.2 ± 9.4%
time to peak of FBF after the administration [5]: 2 min
Changes in FBF ([5]; 0.5 min.): +7 ± 7%
Changes in FBF ([5]; 1 min.): +20 ± 9%
Changes in FBF ([5]; 2 min.): +24 ± 0%
Changes in FBF ([5]; 5 min.): +17 ± 10%
Changes in FBF ([5]; 10 min.): +6 ± 0%
Changes in Max dLVP/dt (myocardium; 0.5 min.): +5 ± 3%
Changes in Max dLVP/dt (myocardium; 1 min.): +10 ± 7%
Changes in Max dLVP/dt (myocardium; 2 min.): +38 ± 23%
Changes in Max dLVP/dt (myocardium; 5 min.): +42 ± 24%
Changes in Max dLVP/dt (myocardium; 10 min.): +31 ± 18%
Changes in Max dLVP/dt (myocardium; 15 min.): +6 ± 11%
50% inhibited concentration to Ca^++ contraction relative to compound (140) hydrochloride (Ca^++ contraction; as much as that of compound (140) hydrochloride): twice
Changes in MBP ([2]; 10 mg/kg oral, 30 min.): -28 ± 13 mmHg
Changes in MBP ([2]; 10 mg/kg oral, 60 min.): -29 ± 11 mmHg
Changes in MBP ([2]; 10 mg/kg oral, 90 min.): -17 ± 14 mmHg
Changes in MBP ([2]; 10 mg/kg oral, 2 hr.): -18 ± 9 mmHg
Changes in MBP ([2]; 10 mg/kg oral, 3 hr.): -12 ± 8 mmHg
Changes in MBP ([2]; 10 mg/kg oral, 5 hr.): -10 mmHg
Changes in MBP ([2]; 10 mg/kg oral, 7 hr.): -11 ± 6 mmHg
Changes in mean blood pressure (conscious rats; after 30 min): -26.7 mmHg
Changes in mean blood pressure (conscious rats; after 60 min): -19.2 mmHg
Changes in mean blood pressure (conscious rats; after 90 min): -18.3 mmHg
Changes in mean blood pressure (conscious rats; after 2 hr): -16.3 mmHg
Changes in mean blood pressure (conscious rats; after 3 hr): -7.1 mmHg
Changes in mean blood pressure (conscious rats; after 5 hr): +1.3 mmHg
Changes in mean blood pressure (conscious rats; after 7 hr): +2.5 mmHg
